According to patent publication US20140057895A1, “INDAZOLE- AND PYRROLOPYRIDINE-DERIVATIVE AND PHARMACEUTICAL USE THEREOF” (priority 2011, published 2014):
Structures can show the parent of a compound that is named as a salt.

Target: T1, 5-HT4 receptor (Cavia porcellus, UniProt O70528)
T1 construct: striatum was isolated which was cryopreserved at −80° C. until use; from tissue; host or cells: guinea pig (Slc-Hartley) striatum membranes
Assay: Test Example 3: Guinea pig 5-HT4 receptor binding assay, [3H]-GR113808, striatum membranes (Table 98)
Conditions: Guinea pig 5-HT4 receptor binding assay, [3H]-GR113808, striatum membranes; mean value of each group; read-out: IC50
Protocol: The guinea pig 5-HT4 receptor binding assay and preparations of receptor membrane preparations herein were carried out according to a method of Grossman et al. [see, British J. Pharmacol., (1993) 109, 618].
Slc-Hartley guinea pigs (body weight 300 g to 400 g) were decapitated to remove brain rapidly, and striatum was isolated which was cryopreserved at −80° C. until use. To the obtained tissues were added fifteen fold of Hepes buffer (50 mM, pH 7.4, 4° C.), and the mixture was homogenized by Teflon (trademark) homogenizer and centrifuged at 48,000×g (4° C.) for 15 minutes. To the resulting precipitate was added Hepes buffer (1 ml) to 30 mg by wet weight of tissues, and the mixture was suspended to give receptor membrane preparations.
To an assay tube were added 0.1 nM [^3H]-GR113808 {chemical name: [1-[2-(methylsulfonylamino) ethyl]-4-piperidinyl]methyl 1-methylindole-3-carboxylate}, receptor membrane preparations, and Hepes buffer (50 mM, pH 7.4, 4° C., 1 ml) containing test compounds or 30 μM serotonin; and the mixture was incubated at 37° C. for 30 minutes. On quenching the reaction, the mixture was rapidly filtered on whatman GF/B filter, which was presoaked in 0.1% polyethyleneimine for 1 hour, by using Brandel cell Harvester, and washed with ice-cooled 50 mM Tris-HCl (pH 7.7, 4 ml) three times. To the filter after filtration was added a liquid scintillator (Ecoscint), and then a radioactivity was determined by a liquid scintillation counter.
50% Inhibition concentrations (IC50) were determined from inhibition rates of test compounds to specific bindings which were obtained by subtracting nonspecific bindings from total binding amounts of [^3H]-GR113808. […]

T1 sequence (O70528 whole entry): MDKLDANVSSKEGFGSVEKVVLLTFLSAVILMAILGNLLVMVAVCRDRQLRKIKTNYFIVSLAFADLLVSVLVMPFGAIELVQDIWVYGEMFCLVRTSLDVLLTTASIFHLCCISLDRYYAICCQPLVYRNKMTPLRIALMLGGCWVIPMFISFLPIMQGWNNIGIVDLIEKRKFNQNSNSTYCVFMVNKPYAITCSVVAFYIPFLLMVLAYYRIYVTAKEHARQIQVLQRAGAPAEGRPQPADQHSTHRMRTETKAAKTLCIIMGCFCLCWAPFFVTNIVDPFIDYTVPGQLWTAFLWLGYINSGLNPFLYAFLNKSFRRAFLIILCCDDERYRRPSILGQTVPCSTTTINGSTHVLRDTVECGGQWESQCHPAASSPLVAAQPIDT

Row | Structure (SMILES) | IC50
1 | CC(=O)N1CCC(N2CCC(c3nc(-n4nc(C(C)C)c5cc(C)ccc54)no3)CC2)CC1 [Example 410, 1-(4-{3-[5-methyl-3-(propan-2-yl)-1H-indazol-1-yl]-1,2,4-oxadiazol-5-yl}-1,4′-bipiperidin-1′-yl)ethanone] | 323 nM
2 | CC(=O)N1CCC(N2CCC(c3nc(-n4nc(C(C)C)c5cc(Cl)ccc54)no3)CC2)CC1 [Example 409, 1-(4-{3-[5-chloro-3-(propan-2-yl)-1H-indazol-1-yl]-1,2,4-oxadiazol-5-yl}-1,4′-bipiperidin-1′-yl)ethanone] | 383 nM
3 | COC(=O)CCCN1CCC(c2nc(-n3nc(C(C)C)c4cccc(F)c43)no2)CC1 [Example 397, methyl 4-(4-{3-[7-fluoro-3-(propan-2-yl)-1H-indazol-1-yl]-1,2,4-oxadiazol-5-yl}piperidin-1-yl)butanoate] | < 20 nM
4 | CC(=O)N1CCC(N2CCC(c3nc(-n4nc(C(F)(F)F)c5cccc(F)c54)no3)CC2)CC1 [Example 406, 1-(4-{3-[7-fluoro-3-(trifluoromethyl)-1H-indazol-1-yl]-1,2,4-oxadiazol-5-yl}-1,4′-bipiperidin-1′-yl)ethanone] | 68.7 nM
5 | COc1ccc2c(C(C)C)nn(-c3noc(C4CCN(C5CCN(C(C)=O)CC5)CC4)n3)c2c1F [Example 404, 1-(4-{3-[7-fluoro-6-methoxy-3-(propan-2-yl)-1H-indazol-1-yl]-1,2,4-oxadiazol-5-yl}-1,4′-bipiperidin-1′-yl)ethanone] | 100 nM
6 | CCc1nn(-c2noc(C3CCN(C4CCC4)CC3)n2)c2cc(C)ccc12 [Example 434, 1-[5-(1-cyclobutylpiperidin-4-yl)-1,2,4-oxadiazol-3-yl]-3-ethyl-6-methyl-1H-indazole trifluoroacetate] | 20.8 nM
7 | CC(=O)N1CCC(N2CCC(Cc3nc(-n4nc(C(C)C)c5cccc(F)c54)no3)CC2)CC1 [Example 417, 1-[4-({3-[7-fluoro-3-(propan-2-yl)-1H-indazol-1-yl]-1,2,4-oxadiazol-5-yl}methyl)-1,4′-bipiperidin-1′-yl]ethanone] | 36 nM
8 | CC(=O)N1CCC(N2CCC(c3nc(-n4nc(C(C)(C)O)c5cccc(F)c54)no3)CC2)CC1 [Example 403, 1-(4-{3-[7-fluoro-3-(2-hydroxypropan-2-yl)-1H-indazol-1-yl]-1,2,4-oxadiazol-5-yl}-1,4′-bipiperidin-1′-yl)ethanone] | 36.1 nM
9 | Cc1ccc2c(c1)c(C(C)C)nn2-c1noc(C2CCN(C3CCC3)CC2)n1 [Example 427, 1-[5-(1-cyclobutylpiperidin-4-yl)-1,2,4-oxadiazol-3-yl]-5-methyl-3-(propan-2-yl}-1H-indazole] | 339 nM
10 | CC(C)c1nn(-c2noc(C3CCN(CCC(=O)c4ccccc4)CC3)n2)c2c(F)cccc12 [Example 396, 3-(4-{3-[7-fluoro-3-(propan-2-yl)-1H-indazol-1-yl]-1,2,4-oxadiazol-5-yl}piperidin-1-yl)-1-phenylpropan-1-one] | < 20 nM
11 | CC(=O)N1CCC(N2CCC(c3nc(-n4nc(C(C)C)c5cccc(C)c54)no3)CC2)CC1 [Example 413, 1-(4-{3-[7-methyl-3-(propan-2-yl)-1H-indazol-1-yl]-1,2,4-oxadiazol-5-yl}-1,4′-bipiperidin-1′-yl)ethanone] | < 20 nM
12 | CC(C)c1nn(-c2noc(C3CCN(C4CCC4)CC3)n2)c2cccc(Cl)c12 [Example 421, 4-chloro-1-[5-(1-cyclobutylpiperidin-4-yl)-1,2,4-oxadiazol-3-yl]-3-(propan-2-yl)-1H-indazole] | 129 nM

Second part, the compound after the results:

Row | IC50 | Structure (SMILES)
13 | 18.7 nM | CC(C)c1nn(-c2noc(C3CCN(C4CCN(C(=O)CO)CC4)CC3)n2)c2c(F)ccc(O)c12 [Example 553, 1-(4-{3-[7-fluoro-4-hydroxy-3-(propan-2-yl)-1,1′-indazol-1-yl]-1,2,4-oxadiazol-5-yl}-1,4′-bipiperidin-1′-yl)-2-hydroxyethanone]
14 | < 20 nM | CC(C)c1nn(-c2noc(C3CCN(C4CCC(F)(F)CC4)CC3)n2)c2c(F)cccc12 [Example 442, 1-{5-[1-(4,4-difluorocyclohexyl)piperidin-4-yl]-1,2,4-oxadiazol-3-yl}-7-fluoro-3-(propan-2-yl)-1H-indazole]
15 | < 20 nM | CC(C)c1nn(-c2noc(C3CCN(C4CCN(S(C)(=O)=O)CC4)CC3)n2)c2c(F)cccc12 [Example 466, 4-{3-[7-fluoro-3-(propan-2-yl)-1H-indazol-1-yl]-1,2,4-oxadiazol-5-yl}-1′-(methylsulfonyl)-1,4′-bipiperidine trifluoroacetate]
16 | 24.9 nM | CC(=O)N1CCC(N2CCC(c3nc(-n4nc(C(C)C)c5c(O)ccc(F)c54)no3)CC2)CC1 [Example 555, 1-(4-{3-[7-fluoro-4-hydroxy-3-(propan-2-yl)-1H-indazol-1-yl]-1,2,4-oxadiazol-5-yl}-1,4′-bipiperidin-1′-yl)ethanone]
17 | 93.7 nM | C=C(C)c1nn(-c2noc(C3CCN(C4CCN(C(=O)CO)CC4)CC3)n2)c2c(F)cccc12 [Example 521, 1-(4-{3-[7-fluoro-3-(prop-1-en-2-yl)-1H-indazol-1-yl]-1,2,4-oxadiazol-5-yl}-1,4′-bipiperidin-1'-yl)-2-hydroxyethanone hydrochloride]
18 | 27.5 nM | CC(=O)N1CCC(CN2CCC(c3nc(-n4nc(C(C)C)c5ccc(F)c(F)c54)no3)CC2)CC1 [Example 480, 1-{4-[(4-{3-[6,7-difluoro-3-(propan-2-yl)-1H-indazol-1-yl]-1,2,4-oxadiazol-5-yl}piperidin-1-yl)methyl]piperidin-1-yl}ethanone trifluoroacetate]
19 | 21.2 nM | CC(C)c1nn(-c2noc(C3CCN(CC4CN(C(=O)N(C)C)CCO4)CC3)n2)c2c(F)cccc12 (centres unmarked) [Example 485, 2-[(4-{3-[7-fluoro-3-(propan-2-yl)-1H-indazol-1-yl]-1,2,4-oxadiazol-5-yl}piperidin-1-yl)methyl]-N,N-dimethylmorpholine-4-carboxamide]
20 | 94.6 nM | CC(=O)N1CCC(CN2CCC(c3nc(-n4nc(C(C)C)c5ccc(C)cc54)no3)CC2)CC1 [Example 479, 1-{4-[(4-{3-[6-methyl-3-(propan-2-yl)-1H-indazol-1-yl]-1,2,4-oxadiazol-5-yl}piperidin-1-yl)methyl]piperidin-1-yl}ethanone trifluoroacetate]
21 | < 20 nM | CC(C)c1nn(-c2noc(C3CCN(CC4CN(S(C)(=O)=O)CCO4)CC3)n2)c2c(F)cccc12 (centres unmarked) [Example 486, 7-fluoro-1-[5-(1-{[4-(methylsulfonyl)morpholin-2-yl]methyl}piperidin-4-yl)-1,2,4-oxadiazol-3-yl]-3-(propan-2-yl)-1H-indazole]
22 | 653 nM | CCCCN1CCC(c2ncc(-n3nc(C(C)C)c4cccc(F)c43)s2)CC1 [Example 564, 1-[2-(1-butylpiperidin-4-yl)-1,3-thiazol-5-yl]-7-fluoro-3-(propan-2-yl)-1H-indazole]
23 | < 20 nM | CC(C)c1nn(-c2noc(C3CCN(C4CCOCC4)CC3)n2)c2c(F)c(F)ccc12 [Example 454, 6,7-difluoro-3-(propan-2-yl)-1-{5-[1-(tetrahydro-2H-pyran-4-yl)piperidin-4-yl]-1,2,4-oxadiazol-3-yl}-1H-indazole trifluoroacetate]
24 | 222 nM | CC(C)(C)c1nn(-c2noc(C3CCN(C4CCN(C(=O)CO)CC4)CC3)n2)c2ccccc12 [Example 522, 1-{4-[3-(3-tert-butyl-1H-indazol-1-yl)-1,2,4-oxadiazol-5-yl]-1,4′-bipiperidin-1′-yl}-2-hydroxyethanone]
25 | 127 nM | CC(C)c1nn(-c2noc(C3CCN(C4CCN(C(=O)C(=O)O)CC4)CC3)n2)c2c(F)cccc12 [Example 557, potassium (4-{3-[7-fluoro-3-(propan-2-yl)-1H-indazol-1-yl]-1,2,4-oxadiazol-5-yl}-1,4′-bipiperidin-1′-yl)(oxo)acetate]
26 | 28.1 nM | CC(C)c1nn(-c2noc(C3CCN(CC4CCOCC4)CC3)n2)c2c(F)c(F)ccc12 [Example 453, 6,7-difluoro-3-(propan-2-yl)-1-{5-[1-(tetrahydro-2H-pyran-4-ylmethyl)piperidin-4-yl]-1,2,4-oxadiazol-3-yl}-1H-indazole trifluoroacetate]
27 | 113 nM | CCc1nn(-c2noc(C3CCN(C4CCOCC4)CC3)n2)c2cc(C)ccc12 [Example 437, 3-ethyl-6-methyl-1-{5-[1-(tetrahydro-2H-pyran-4-yl)piperidin-4-yl)-1,2,4-oxadiazol-3-yl}-1H-indazole trifluoroacetate]
28 | < 20 nM | CC(C)c1nn(-c2noc(C3CCN(C4CCOCC4)C3)n2)c2c(F)cccc12 (centres unmarked) [Example 456, 7-fluoro-3-(propan-2-yl)-1-{5-[1-(tetrahydro-2H-pyran-4-yl)pyrrolidin-3-yl]-1,2,4-oxadiazol-3-yl}-1H-indazole]
29 | 179 nM | Cc1ccc2c(C(C)C)nn(-c3noc(C4CCN(CC5CCOCC5)CC4)n3)c2c1 [Example 436, 6-methyl-3-(propan-2-yl)-1-{5-[1-(tetrahydro-2H-pyran-4-ylmethyl)piperidin-4-yl]-1,2,4-oxadiazol-3-yl}-1H-indazole trifluoroacetate]
